Measurements from patent US20070020195A1, “Nasally administered appetite suppressants” (priority 2005, published 2007).
Where “and” joins values, the source holds several entries; their conditions need not be identical. Equal entries are not always repeated.

What was measured:
[1] = Dose-escalation food intake trial in obese subjects with Universal Eating Monitor (Examples 2-5); type: in vivo, human
[2] = cited from earlier work
[3] = Double-blind crossover food intake study, intranasal lidocaine vs saline before a fried chicken meal; type: in vivo, human; conditions: four subjects
Description: Three males and one female between 23 and 60 years of age with BMI's less than 25 kg/m2 participated in a study of food intake. The subjects presented to the food intake laboratory at noon after an overnight fast except for water from 9 pm the prior night on two occasions a week apart. They had 10 mg (0.5 cc) of lidocaine or 0.5 cc normal saline administered in each nostril 20 minutes before presentation of a meal consisting of fried chicken pieces and water. They were allowed to eat and drink as much or as little as they wished over a 20-minute period, and there were more chicken pieces than they could reasonably be expected to eat at one sitting. The order of the lidocaine and saline was balanced and the study was performed in a double-blind fashion.
The four subjects consumed 15%, 11%, 27% and 33% less on the lidocaine week compared to the placebo week. […] Sibutramine, an obesity drug, gives an 8% weight loss at 6 months and causes a 12% decrease in food intake.

[4] = 70 kg adult; cited from earlier work
[5] = applied topically; cited from earlier work

leptin
anorexiant effect ([1]; about 20 mg per day leptin added to lidocaine, Example 5): further anorexiant effect

CC(C)CC(N(C)C)C1(c2ccc(Cl)cc2)CCC1 (stereo not shown) [Sibutramine]
weight loss ([2]; at 6 months): 8% | decrease in food intake ([2]; in vivo): 12%

CCN(CC)CC(=O)Nc1c(C)cccc1C [lidocaine]
reduction in food consumed on lidocaine week compared to placebo week, individual subjects ([3]; 10 mg (0.5 cc) lidocaine in each nostril 20 minutes before meal, BMI less than 25 kg/m2): 15% and 11% and 27% and 33% | overall reduction in food intake ([3]; 10 mg lidocaine in each nostril 20 minutes before meal, p<0.02): 21.5%+10.2% | maximum safe dosage for topical anesthetic [4]: 500 mg | food consumption with escalating doses ([1]; 2.5, 10 and 25 mg lidocaine per nostril vs saline, BMI 30-40, Example 2): reduction in food consumption | duration of anesthesia [5]: 30 to 45 min | time to peak anesthesia [5]: 2 to 5 min

Cn1c(=O)c2c(ncn2C)n(C)c1=O [caffeine]
effect on energy expenditure ([1]; about 200 mg caffeine orally or nasally added to lidocaine, Example 4): increasing energy expenditure
